The record followed here is patent US20090247559A1 (Exelixis, Inc., priority 2007, published 2009).

In this assay the target is PIM (PIM-1, PIM-2, and/or PIM-3). The assay is described as follows: PIM-1, PIM-2 and PIM-3 inhibition, biochemical chemiluminescence assays (Kinase Glo, IC50 determination). As to conditions: Table 1 activity class; PIM refers to PIM-1, PIM-2, and/or PIM-3; read-out: PIM IC50 (Activity B). As for the experimental part: (§1) The IC50 evaluation of compounds against the PIM-1 oncogene was performed in a Chemiluminesence assay utilizing a Greiner 384-well white medium binding white plate format. […] Following an incubation period of 120 minutes at ambient temperature (24-27° C.), 10 μL of Kinase Glo (Promega) was added. The luminescence was measured following a Luminescence Protocol on a Victor plate reader.
as §1, with “PIM-2” for “PIM-1”, “format. […] The assay procedure involves compound dilution followed by addition of 3 nM PIM-2 to the designated well plates and subsequent pre-incubation of the compounds with the enzyme for 30 minutes at ambient temperature (24-27° C.).” for “format.”
The IC50 evaluation of compounds against the PIM-3 Oncogene was performed in a Chemiluminesence assay utilizing a Greiner 384-well white medium binding white plate format. […] Following an incubation period of 120 minutes at ambient temperature (24-27° C.), 10 μL of Kinase Glo (Promega) was added. The luminescence was measured following a Luminescence Protocol on a Victor plate reader.

In the case of `O=c1[nH]c(CNC2CCNCC2)nc2c1oc1ccc(Br)cc12` [Compound 8, 8-bromo-2-[(piperidin-4-ylamino)methyl][1]benzofuro[3,2-d]pyrimidin-4(3H)-one], the half-maximal inhibitory concentration (IC50) (usually the concentration that gives 50% inhibition) is less than 10 µM.
On to `CN(C)CCCNC(=O)[C@@H]1CCCN1Cc1nc2c(oc3ccc(Br)cc32)c(=O)[nH]1` [Compound 20, 1-[(8-bromo-4-oxo-3,4-dihydro[1]benzofuro[3,2-d]pyrimidin-2-yl)methyl]-N-[3-(dimethylamino)propyl]prolinamide], for which the IC50 is less than 10 µM.
Regarding `O=c1[nH]c(CNc2ccc(F)cc2)nc2c1oc1ccc(Br)cc12` [Compound 22, 8-bromo-2-{[(4-fluorophenyl)amino]methyl}[1]benzofuro[3,2-d]pyrimidin-4(3H)-one], the half-maximal inhibitory concentration (IC50) was less than 10 µM.
Next, `CCN(CC)CC(=O)N1CCN(Cc2nc3c(oc4ccc(Br)cc43)c(=O)[nH]2)CC1` [Compound 26, 8-bromo-2-{[4-(N,N-diethylglycyl)piperazin-1-yl]methyl}[1]benzofuro[3,2-d]pyrimidin-4(3H)-one]: less than 10 µM.
The value for `COC(=O)c1ccc(-c2nc3c(oc4ccccc43)c(=O)[nH]2)cc1` [Compound 53, methyl 4-(4-oxo-3,4-dihydro[1]benzofuro[3,2-d]pyrimidin-2-yl)benzoate] was less than 10 µM.
On to `Cc1cc(NCC2CCOC2)ccc1-c1nc2c(oc3ccc(Br)cc32)c(=O)[nH]1` (stereo not drawn) [Compound 61, 8-bromo-2-{2-methyl-4-[(tetrahydrofuran-3-ylmethyl)amino]phenyl}[1]benzofuro[3,2-d]pyrimidin-4(3H)-one], for which the IC50 was less than 10 µM.
The value for `CN1CCN(c2ccccc2CNCc2nc3c(oc4ccc(Br)cc43)c(=O)[nH]2)CC1` [Compound 74, 8-bromo-2-[({[2-(4-methylpiperazin-1-yl)phenyl]methyl}amino)methyl][1]benzofuro[3,2-d]pyrimidin-4(3H)-one] was less than 10 µM; that for `CN(C)c1cccc(NCc2nc3c(oc4ccc(Br)cc43)c(=O)[nH]2)c1` [Compound 76, 8-bromo-2-({[3-(dimethylamino)phenyl]amino}methyl)[1]benzofuro[3,2-d]pyrimidin-4(3H)-one] was less than 10 µM; that for `CN(C)CCN1CCN(Cc2nc3c(oc4ccc(Br)cc43)c(=O)[nH]2)CC1` [Compound 81, 8-bromo-2-({4-[2-(dimethylamino)ethyl]piperazin-1-yl}methyl)[1]benzofuro[3,2-d]pyrimidin-4(3H)-one] was less than 10 µM.
The value for `O=c1[nH]c(CN2CCN(CCN3CCOCC3)CC2)nc2c1oc1ccc(Br)cc12` [Compound 82, 8-bromo-2-{[4-(2-morpholin-4-ylethyl)piperazin-1-yl]methyl}[1]benzofuro[3,2-d]pyrimidin-4(3H)-one] was less than 10 µM; that for `CN1CCC(N2CCN(Cc3nc4c(oc5ccc(Br)cc54)c(=O)[nH]3)CC2)CC1` [Compound 84, 8-bromo-2-{[4-(1-methylpiperidin-4-yl)piperazin-1-yl]methyl}[1]benzofuro[3,2-d]pyrimidin-4(3H)-one] was less than 10 µM; that for `O=c1[nH]c(-c2ccc(Cl)cc2)nc2c1oc1ccc(Br)cc12` [Compound 94, 8-Bromo-2-(4-chlorophenyl)[1]benzofuro[3,2-d]pyrimidin-4(3H)-one] was less than 10 µM.
The value for `O=c1[nH]c(-c2ccc(Br)cc2)nc2c1oc1ccc(Br)cc12` [Compound 95, 8-Bromo-2-(4-bromophenyl)[1]benzofuro[3,2-d]pyrimidin-4(3H)-one] was less than 10 µM.
Take `CNC(=O)c1ccc2oc3c(=O)[nH]c(-c4ccccc4Cl)nc3c2c1` [Compound 97, 2-(2-chlorophenyl)-N-methyl-4-oxo-3,4-dihydrobenzofuro[3,2-d]pyrimidine-8-carboxamide]: the IC50 is less than 10 µM.
The value for `O=C(COc1cccc(-c2nc3c(oc4ccc(Br)cc43)c(=O)[nH]2)c1)NCC1CC1` [Compound 98, 2-{[3-(8-bromo-4-oxo-3,4-dihydro[1]benzofuro[3,2-d]pyrimidin-2-yl)phenyl]oxy}-N-(cyclopropylmethyl)acetamide] was less than 10 µM; that for `CN1CCN(C(=O)c2nc3c(oc4ccc(Br)cc43)c(=O)[nH]2)CC1` [Compound 106, 8-Bromo-2-[(4-methylpiperazin-1-yl)carbonyl][1]benzofuro[3,2-d]pyrimidin-4(3H)-one] was less than 10 µM; that for `NC1C[C@H]2CC[C@@H](C1)N2Cc1nc2c(oc3ccc(Br)cc32)c(=O)[nH]1` (stereo partly drawn) [Compound 131, 2-{[(1R,5S)-3-Amino-8-azabicyclo[3.2.1]oct-8-yl]methyl}-8-bromo[1]benzofuro[3,2-d]pyrimidin-4(3H)-one] was less than 10 µM.
Next, `CN1CCN(C(c2nc3c(oc4ccc(Br)cc43)c(=O)[nH]2)c2ccccc2Cl)CC1` (stereo not drawn) [Compound 156, 8-Bromo-2-[(2-chlorophenyl)(4-methylpiperazin-1-yl)methyl][1]benzofuro[3,2-d]pyrimidin-4(3H)-one]: less than 10 µM; `CN1CCN(C(c2ccccc2)c2nc3c(oc4ccc(Br)cc43)c(=O)[nH]2)CC1` (stereo not drawn) [Compound 188, 8-bromo-2-[(4-methylpiperazin-1-yl)(phenyl)methyl][1]benzofuro[3,2-d]pyrimidin-4(3H)-one]: less than 10 µM; `CN(C)CCNCc1nc2c(oc3ccc(Br)cc32)c(=O)[nH]1` [Compound 200, 8-bromo-2-({[2-(dimethylamino)ethyl]amino}methyl)[1]benzofuro[3,2-d]pyrimidin-4(3H)-one]: less than 10 µM.
The value for `O=c1[nH]c(CN2CCC(N3CCCCC3)CC2)nc2c1oc1ccc(Br)cc12` [Compound 202, 2-(1,4′-bipiperidin-1′-ylmethyl)-8-bromo[1]benzofuro[3,2-d]pyrimidin-4(3H)-one] was less than 10 µM.
With `CN1CCN(C(Cc2ccccc2)c2nc3c(oc4ccc(Br)cc43)c(=O)[nH]2)CC1` (stereo not drawn) [Compound 215, 8-bromo-2-[1-(4-methylpiperazin-1-yl)-2-phenylethyl][1]benzofuro[3,2-d]pyrimidin-4(3H)-one], the IC50 was less than 10 µM.
The value for `CC(C)COc1cnccc1-c1nc2c(oc3ccc(Br)cc32)c(=O)[nH]1` [Compound 219, 8-bromo-2-{3-[(2-methylpropyl)oxy]pyridin-4-yl}[1]benzofuro[3,2-d]pyrimidin-4(3H)-one] was less than 10 µM.
The value for `CN1CCN(c2ccc(CNc3nc4c(oc5ccc(Br)cc54)c(=O)[nH]3)cc2)CC1` [Compound 225, 8-bromo-2-({[4-(4-methylpiperazin-1-yl)phenyl]methyl}amino)[1]benzofuro[3,2-d]pyrimidin-4(3H)-one] was less than 10 µM; that for `O=c1[nH]c(CN2CCN(c3cccc(Cl)c3)CC2)nc2c1oc1ccc(Br)cc12` [Compound 278, 8-bromo-2-{[4-(3-chlorophenyl)piperazin-1-yl]methyl}[1]benzofuro[3,2-d]pyrimidin-4(3H)-one] was less than 10 µM.
Next, `C[C@@H]1CN(Cc2nc3c(oc4ccc(Br)cc43)c(=O)[nH]2)C[C@H](C)N1` [Compound 296, 8-bromo-2-{[(3R,5S)-3,5-dimethylpiperazin-1-yl]methyl}[1]benzofuro[3,2-d]pyrimidin-4(3H)-one]: less than 10 µM; `O=c1[nH]c(-c2cn3c(n2)CNCC3)nc2c1oc1ccc(Br)cc12` [Compound 301, 8-Bromo-2-(5,6,7,8-tetrahydroimidazo[1,2-a]pyrazin-2-yl)[1]benzofuro[3,2-d]pyrimidin-4(3H)-one]: less than 10 µM.
With `C[C@@H]1CN(Cc2nc3c(oc4ccc(Br)cc43)c(=O)[nH]2)C[C@H](C)N1C` [Compound 316, 8-bromo-2-{[(3R,5S)-3,4,5-trimethylpiperazin-1-yl]methyl}[1]benzofuro[3,2-d]pyrimidin-4(3H)-one], the IC50 was less than 10 µM.
The value for `O=C(Nc1ccc(Cl)c(-c2nc3c(oc4ccc(Br)cc43)c(=O)[nH]2)c1)c1cccnc1` [Compound 327, N-[3-(8-bromo-4-oxo-3,4-dihydro[1]benzofuro[3,2-d]pyrimidin-2-yl)-4-chlorophenyl]pyridine-3-carboxamide] was less than 10 µM; that for `O=C(Nc1ccc(Cl)c(-c2nc3c(oc4ccc(Br)cc43)c(=O)[nH]2)c1)c1ccc(Br)cn1` [Compound 338, 5-bromo-N-[3-(8-bromo-4-oxo-3,4-dihydro[1]benzofuro[3,2-d]pyrimidin-2-yl)-4-chlorophenyl]pyridine-2-carboxamide] was less than 10 µM; that for `COc1ccc(C(=O)Nc2ccc(Cl)c(-c3nc4c(oc5ccc(Br)cc54)c(=O)[nH]3)c2)cn1` [Compound 357, N-[3-(8-bromo-4-oxo-3,4-dihydro[1]benzofuro[3,2-d]pyrimidin-2-yl)-4-chlorophenyl]-6-(methyloxy)pyridine-3-carboxamide] was less than 10 µM.
Next, `CN1CCN(Cc2nc3c(oc4ccc(F)cc43)c(=O)[nH]2)CC1` [Compound 367, 8-Fluoro-2-[(4-methylpiperazin-1-yl)methyl][1]benzofuro[3,2-d]pyrimidin-4(3H)-one]: less than 10 µM.
Next, `O=c1[nH]c(C(c2ccccc2)N2CCNCC2)nc2c1oc1ccc(Br)cc12` (stereo not drawn) [Compound 384, 8-bromo-2-[phenyl(piperazin-1-yl)methyl][1]benzofuro[3,2-d]pyrimidin-4(3H)-one]: less than 10 µM.
